Here are results for five substances from paper PMC6481723, “Fibroblast migration correlates with matrix softness. A study in knob-hole engineered fibrin” (APL Bioengineering, 2018).

Assay [1] deals with T1, bovine fibrinogen (Bos taurus, UniProt P02672+P02676+P12799).
T1 sequence (P12799 25-444): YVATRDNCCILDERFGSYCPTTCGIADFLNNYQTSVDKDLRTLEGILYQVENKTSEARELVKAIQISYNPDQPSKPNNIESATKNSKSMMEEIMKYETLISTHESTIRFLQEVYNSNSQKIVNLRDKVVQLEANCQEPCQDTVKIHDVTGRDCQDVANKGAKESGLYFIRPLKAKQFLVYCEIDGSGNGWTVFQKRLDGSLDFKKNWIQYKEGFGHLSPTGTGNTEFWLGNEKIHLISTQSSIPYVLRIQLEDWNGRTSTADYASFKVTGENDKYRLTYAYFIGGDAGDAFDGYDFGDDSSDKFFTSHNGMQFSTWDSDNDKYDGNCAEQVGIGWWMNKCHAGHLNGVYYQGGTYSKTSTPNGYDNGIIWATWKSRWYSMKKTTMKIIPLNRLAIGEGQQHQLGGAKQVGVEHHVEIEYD
T1 sequence (P02676 1-468): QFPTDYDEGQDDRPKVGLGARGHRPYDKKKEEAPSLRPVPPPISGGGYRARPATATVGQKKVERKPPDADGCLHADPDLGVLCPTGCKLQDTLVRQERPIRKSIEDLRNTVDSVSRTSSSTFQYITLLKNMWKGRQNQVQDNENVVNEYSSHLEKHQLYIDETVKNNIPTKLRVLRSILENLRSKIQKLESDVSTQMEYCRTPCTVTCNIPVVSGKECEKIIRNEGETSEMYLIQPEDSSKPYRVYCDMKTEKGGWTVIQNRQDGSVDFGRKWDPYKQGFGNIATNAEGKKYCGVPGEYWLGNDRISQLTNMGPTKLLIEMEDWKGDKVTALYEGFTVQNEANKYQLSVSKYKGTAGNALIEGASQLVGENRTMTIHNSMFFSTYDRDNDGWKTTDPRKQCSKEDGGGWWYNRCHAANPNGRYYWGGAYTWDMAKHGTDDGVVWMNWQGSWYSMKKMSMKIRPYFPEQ
T1 sequence (P02672 20-615 partner): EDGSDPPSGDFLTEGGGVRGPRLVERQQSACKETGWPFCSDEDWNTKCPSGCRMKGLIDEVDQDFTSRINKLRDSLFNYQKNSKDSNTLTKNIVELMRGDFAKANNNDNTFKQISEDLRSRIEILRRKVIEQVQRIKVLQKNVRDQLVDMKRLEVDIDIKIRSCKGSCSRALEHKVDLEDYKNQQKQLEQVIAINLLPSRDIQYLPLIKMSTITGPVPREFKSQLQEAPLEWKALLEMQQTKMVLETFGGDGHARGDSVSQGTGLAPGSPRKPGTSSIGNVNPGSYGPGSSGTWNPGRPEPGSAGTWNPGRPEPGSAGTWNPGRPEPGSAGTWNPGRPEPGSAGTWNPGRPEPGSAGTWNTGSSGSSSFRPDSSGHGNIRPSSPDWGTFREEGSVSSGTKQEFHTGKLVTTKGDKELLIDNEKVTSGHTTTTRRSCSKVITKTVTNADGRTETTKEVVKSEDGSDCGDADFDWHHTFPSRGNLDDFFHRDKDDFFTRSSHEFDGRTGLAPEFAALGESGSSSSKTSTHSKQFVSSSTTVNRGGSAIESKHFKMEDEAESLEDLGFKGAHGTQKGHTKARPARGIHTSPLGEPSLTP
Description: Isothermal titration calorimetry (ITC) binding to fibrinogen. The settings on record: ITC in HBS; peptides 5.7-5.9 mM titrated into 0.175 mM fibrinogen; PEG-pep1 1.7 mM or PEG-pep2 5.2 mM into 0.012 mM fibrinogen; n = 3 independent samples. The method, then: (§1) Two techniques were used to confirm that PEG-peptides retained the ability to bind to fibrinogen (Fig. 1 and Table I, right): Fluorescence Anisotropy (FA) and Isothermal Titration Calorimetry (ITC). In FA measurements [Fig. 1(a)], the dissociation constant (Kd) was determined via saturation experiments for the non-conjugated peptides, and via competition experiments for the PEG-peptides. In the first case, saturation was achieved by adding increasing amounts of fibrinogen to a given amount of fluorescein-labelled peptides. In competition experiments, fibrinogen was pre-complexed with fluorescein-labelled peptides; these low molecular weight fluorophores were displaced upon addition of non-labelled conjugates, with a corresponding decrease in the polarization of the emitted light (smaller tumbling time).
The sample cell for this study can contain up to 270 μl of liquid. Fibrinogen/peptide samples were prepared adding 2 μl aliquots of peptide solution (5.91, 5.92, and 5.73 mM for Pep1, Pep2, and Pep3, respectively) under continuous stirring to 200 μl of 0.175 mM of bovine fibrinogen solution. Fibrinogen/PEG-peptide complexes were prepared adding 2 μl of 1.7 mM of PEG-pep1 or 5.2 mM of PEG-pep2 to 200 μl of 0.012 mM of bovine fibrinogen solution. Note that fibrinogen was prepared as follow: 60 mg of fibrinogen were dissolved in 1 mL HBS for 2 h at 37 °C and then dialyzed (Float-A-Lyzer G2 MWCO: 0.5–1 kDa, Spectrum, Inc.) against HBS for 24 h.
In general terms: ITC needs no label: the signal is the heat of the interaction.

Assay [2] concerns the target T2, fibrinogen (Bos taurus, UniProt P02672+P02676+P12799).
T2 sequence (P12799 25-444): T1 sequence (P12799 25-444)
T2 sequence (P02676 1-468): T1 sequence (P02676 1-468)
T2 sequence (P02672 20-615 partner): T1 sequence (P02672 20-615 partner)
The assay is described as follows: Fluorescence anisotropy (FA) saturation experiments with fluorescein-labelled peptides. The settings on record: 5IAF-labelled peptide 25-30 μM, fibrinogen 50 nM-103 μM, HBS, 1 h room temperature; Hill model; n = 3. In kind it is binding. The method, then: as §1
Equal volumes (100 μl) of a labelled peptide solution (5IAF-pep1, 5IAF-pep2, or 5IAF-pep3) in HEPES (4-(2-hydroxyethyl)-1-piperazineethanesulfonic acid)-buffered saline (HBS) and of a fibrinogen solution were mixed together by gentle pipetting into a 96-well plate to obtain final concentrations of fibrinogen ranging from 50 nM to 103 μM, and a constant peptide concentration, i.e., 26 μM for 5IAF-pep1, 25 μM for 5IAF-pep2, or 30 μM for 5IAF-pep3. […] All mixed reagents were incubated for 1 h at room temperature before recording fluorescence polarization values.

In assay [3] the test system is fibrin clotting. Particulars: cited from earlier work.
The target of assay [4] is T2, fibrinogen. Description: Fluorescence anisotropy (FA) competition experiments (displacement of 5IAF-peptides from fibrinogen). It is filed as binding. Particulars: 36 μM fibrinogen pre-complexed with 5IAF-pep1 (0.25 μM) or 5IAF-pep2 (0.8 μM), displaced by PEG-peptide, 1 h 37 °C, HBS; n = 3. The method, then: as §1
Fibrinogen/5IAF-pep1 or 5IAF-pep2 complexes were prepared as described in the saturation experiments using 50 μl initial volumes and keeping the fibrinogen concentration fixed. Solutions were pre-incubated for 1 h at room temperature before 50 μl of PEG-peptide 1 or 2 solutions in HBS was added into the wells to obtain a final volume of 150 μl per well. Final concentrations were 36 μM fibrinogen; 0.25 μM 5IAF-pep1 and 0.6 μM to 1.2 mM PEG-pep1; 0.8 μM 5IAF-pep2; and 0.2 μM to 5 mM PEG-pep2. Polarization values were measured after 1 h of incubation at 37 °C. […]

Assay [5] deals with adult Human Dermal Fibroblasts (HDFa). Description: Fibrin-in-fibrin HDFa migration assay (radial invasion). It is filed as cell-based. The settings on record: 220 KIU of aprotinin in the media. Here is the method:
This migration assay is based on a fibrin-in-fibrin assay: when a volume of HDFa-laden fibrinogen solution is injected into a gelling fibrinogen-based formulation, cells migrate from the clot into the surrounding matrix; the maximum distance covered in the unit time [Fig. 8(a) top and insert in the bottom graph] is a measure of the cell migration capacity. This model is particularly advantageous to assess the migration of cells separately from other phenomena; for example, if seeded homogeneously and/or moving as a coherent front, cells can rapidly remodel and contract the matrix,[41] and this can profoundly influence the characteristics of their migration too.[42]
Standard cell culture methods are reported in the supplementary material, Sec. 1.4SI. For the migration assays, adult Human Dermal Fibroblasts (HDFa) were gently suspended in 12.5 mg/ml fibrinogen (in HBS) at a final cell density of 3 × 10^7 cells/ml. […] The cell migration rate was measured by analyzing acquired images with ImageJ (v1.49p, http://rsb.info.nih.gov/ij): the migration area was approximated to a circle and the cell invasion was thus quantified as the variation of the initial diameter, as previously reported by Lutolf et al.[28] An average of nine time points per diameter were measured from day 0 to 8, returning the average migration rate (μm/day). […]

Read-outs that look alike come from different tables or passages of the source. Ends that are not written are not given here.

Usually Kd stands for the constant that tells how readily two partners part at equilibrium. Read a low Kd as tighter binding. For GHRPGCG [Pep2], the figures for the dissociation constant Kd in assay [1] and in assay [2] were 351 ± 10 µM and 335 ± 6 µM, respectively.
In the case of GPRP [glycine-proline-arginine-proline], the figures for the “effect on fibrin clotting” value in assay [3] (1:20 fibrinogen/peptide molar ratio) and in assay [3] (above 1:100 fibrinogen/peptide molar ratio) were “significantly reduce fibrin clotting” and “completely prevent”, respectively.
Turning to GPRPGCG [Pep1], the Kd in assay [1] is 44 ± 9 µM; in assay [2], 40 ± 1 µM.
Regarding “PEG-pep1: 2 kDa PEG vinyl sulfone conjugated to Pep1; rest of material PEG-ME (GPRPGCG; Cys6 thiol joined by thioether (Michael addition) to 2 kDa PEG vinyl sulfone; free N-terminus (A-knob mimic); about 20 mol% of the material is PEG-mercaptoethanol; The GC)”, the Kd in assay [1] turned out to be 103 ± 5 µM; in assay [4], 135 ± 8 µM.
With aprotinin, in assay [5], the “HDFa migration rate in presence vs absence of the inhibitor” value is “virtually identical migration rates”.
